What was measured:
Prothrombin [1] = molecular target: T1, Prothrombin (Homo sapiens, UniProt P00734); assay: Binding affinity against thrombin
Prothrombin [2] = molecular target: T1, Prothrombin; assay: Inhibitory activity against human thrombin
Serine protease 1 [3] = molecular target: T2, Serine protease 1 (Homo sapiens, UniProt P07477); assay: Inhibitory activity against human trypsin
Serine protease 1 [4] = molecular target: T2, Serine protease 1; assay: Tested for the inhibition of trypsin at a concentration of 100 uM
Serine protease 1 [5] = molecular target: T2, Serine protease 1; assay: Compound was tested for the binding affinity against trypsin

T2 sequence (P07477 whole entry): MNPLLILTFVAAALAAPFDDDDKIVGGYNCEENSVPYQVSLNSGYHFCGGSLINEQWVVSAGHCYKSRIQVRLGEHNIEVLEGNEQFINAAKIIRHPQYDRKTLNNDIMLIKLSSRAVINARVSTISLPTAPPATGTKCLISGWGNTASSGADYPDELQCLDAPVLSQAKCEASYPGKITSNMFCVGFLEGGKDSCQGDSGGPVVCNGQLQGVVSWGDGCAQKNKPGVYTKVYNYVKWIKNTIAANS

Row | Compound | Ki (Prothrombin [1]) [nM] | IC50 (Prothrombin [2]) [nM] | IC50 (Serine protease 1 [3]) [nM] | inhibition (Serine protease 1 [4]) [%] | Ki (Serine protease 1 [5]) [nM]
1 | C[C@H]1C(=O)N(CCCc2ccccc2)CC(=O)N1CC(=O)N[C@@H](C[C@@H]1CCCN(C(=N)N)C1)C(=O)c1nccs1 | 65 | 760 | 24000 |  | 
2 | CCC(C)[C@H]1C(=O)N(CCCc2ccccc2)CC(=O)N1CC(=O)N[C@@H](CC1CCCN(C(=N)N)C1)C(=O)c1nccs1 (stereo partly specified) | 200 | 3400 |  | 67 | 
3 | CN1CC(=O)N(CC(=O)N[C@@H](CC2CCCN(C(=N)N)C2)C(=O)c2nccs2)[C@@H](Cc2ccc3ccccc3c2)C1=O (stereo partly specified) | 140 | 1270 | 26600 |  | 
4 | N=C(N)N1CCCC(C[C@H](NC(=O)CN2C(=O)CN(CCCc3ccccc3)C(=O)[C@@H]2Cc2cccnc2)C(=O)c2nccs2)C1 (stereo partly specified) |  | 1000 |  | 40 | 
5 | CC(C)[C@H]1C(=O)N(CCCc2ccccc2)CC(=O)N1CC(=O)N[C@@H](CC1CCCN(C(=N)N)C1)C(=O)c1nccs1 (stereo partly specified) |  | 1800 | 74800 |  | 
6 | CCCC[C@H]1C(=O)N(CCCc2ccccc2)CC(=O)N1CC(=O)N[C@@H](CC1CCCN(C(=N)N)C1)C(=O)c1nccs1 (stereo partly specified) | 98 | 1600 | 42700 |  | 
7 | N=C(N)N1CCCC(C[C@H](NC(=O)CN2C(=O)CN(CCCc3ccccc3)C(=O)[C@@H]2Cc2ccc3ccccc3c2)C(=O)c2nccs2)C1 (stereo partly specified) | 30 | 45 | 27000 |  | 13.5
8 | N=C(N)N1CCCC(C[C@H](NC(=O)CN2C(=O)CN(CCCc3ccccc3)C(=O)[C@@H]2CC2CCCCC2)C(=O)c2nccs2)C1 (stereo partly specified) | 75 | 430 | 18500 |  | 
9 | N=C(N)N1CCCC(C[C@H](NC(=O)CN2C(=O)CN(CCCc3ccccc3)C(=O)C2C(c2ccccc2)c2ccccc2)C(=O)c2nccs2)C1 (stereo partly specified) |  | 750 | 9700 |  | 
10 | N=C(N)N1CCC[C@@H](C[C@H](NC(=O)CN2C(=O)CN(CCCc3ccccc3)C(=O)[C@@H]2Cc2ccccc2)C(=O)c2nccs2)C1 | 24 | 240 |  | 80 | 
11 | CC(C)C[C@H]1C(=O)N(CCCc2ccccc2)CC(=O)N1CC(=O)N[C@@H](CC1CCCN(C(=N)N)C1)C(=O)c1nccs1 (stereo partly specified) | 165 | 4300 |  | 69 | 

Further lines, results first:

Row | Ki (Prothrombin [1]) [nM] | IC50 (Prothrombin [2]) [nM] | IC50 (Serine protease 1 [3]) [nM] | inhibition (Serine protease 1 [4]) [%] | Ki (Serine protease 1 [5]) [nM] | Compound
12 | 495 | 4700 | 91200 |  |  | N=C(N)N1CCCC(C[C@H](NC(=O)CN2CC(=O)N(CCCc3ccccc3)CC2=O)C(=O)c2nccs2)C1 (stereo partly specified)
13 | 105 | 590 | 29000 |  |  | N=C(N)N1CCCC(C[C@H](NC(=O)CN2C(=O)CN(CCCc3ccccc3)C(=O)[C@@H]2CCc2ccccc2)C(=O)c2nccs2)C1 (stereo partly specified)
14 |  | 130 | 90 |  |  | N=C(N)NCCC[C@H](NC(=O)CN1C(=O)CN(CCCc2ccccc2)C(=O)[C@@H]1Cc1ccccc1)C(=O)c1nccs1
15 |  |  | 11100 |  |  | N=C(N)N1CCCC(C[C@H](NC(=O)CN2C(=O)CN(Cc3ccccc3)C(=O)[C@@H]2Cc2ccc3ccccc3c2)C(=O)c2nccs2)C1 (stereo partly specified)
16 | 40 | 170 | 33400 |  |  | N=C(N)N1CCCC(C[C@H](NC(=O)CN2C(=O)CN(CCCc3ccccc3)C(=O)[C@@H]2Cc2ccc(Cl)cc2)C(=O)c2nccs2)C1 (stereo partly specified)
17 | 43 | 350 | 3800 |  |  | COc1ccc(C[C@H]2C(=O)N(CCCc3ccccc3)CC(=O)N2CC(=O)N[C@@H](CC2CCCN(C(=N)N)C2)C(=O)c2nccs2)cc1 (stereo partly specified)

Source: ChEMBL document CHEMBL1132668, “The design of potent and selective inhibitors of thrombin utilizing a piperazinedione template: part 1” (Bioorg Med Chem Lett, 1999)
